# Patent US20010039027A1, “Cyclitol containing carbohydrates from human tissue which regulate lipogenic activity” (priority 1996, published 2001)
# Tested on: rat adipocytes
# Assay: Activation of lipogenesis in rat adipocytes
# Format: cell-based
# Details: insulin 1 nM; twenty independent lipogenesis assays
# Method: This was carried out on adipocytes isolated from the epididymal fat pads of young rats. Briefly adipocytes from two rat epididymial fat pads were suspended in 8 ml of Krebs Ringer bicarbonate and 250 μL of the cell suspension was incubated at 37° C. for two hours in Krebs Ringer bicarbonate, containing 1% albumin and 5 mM [U-^14C]-glucose (1 μCi/sample) with or without insulin (1 nM) or 10 μL of IPG solutions. The rate of incorporation of uniformly labelled glucose into fatty acids was used as a measure of lipogenesis.
substance,measurement,value
Insulin,Lipogenesis (lipogenic activity),5160 ± 310 (n-20) milliunits/g liver
